# Entries after “also recorded” stand apart in the source; their conditions may differ. Structures can show the parent of a compound that is named as a salt. Where two headings read alike, the source gives them in different places.
# Assays:
# [1] = Toxicity of indomethacin solubilized in n-methyl glucamine with hyaluronic acid in animals; format: in vivo
# Method: As a major amount of soluble indomethacin may be incorporated into the formulation, or composition, the indomethacin may be solubilized using n-methyl glucamine at a dilution of 5 mg/ml of n-methyl glucamine (NMG). This substance is then passed through a […] Milipore filter to produce sterility. […] The solution of indomethacin and NMG may be mixed with, for example, "LifeCore™" hyaluronic acid in dosage amounts discussed above. This produces an appropriate mixture and can be administered safely.
# [2] = Topical treatment of back pain in a patient with kyphosis; conditions: applied to back in hyaluronic acid
# [3] = Chronic conditions - evaluations of patients treated with […] hyaluronic acid with 3% diclofenac acid (HD); format: in vivo, human (patients); conditions: single patient
# [4] = tested on: Fisher Bladder Carcinoma tumor tissue; conditions: rat, in vivo, iv
# Method: (§1) Tumor (2 mm viable tumor fragment) was transplanted subcutaneously on the right frank by trocar
# (§2) Treatment was started when tumor size is about 1.5 cm.(2 weeks after implantation.) . . . tumor weight: 1.0+0.3 g
# (§3) The drug was administered Intravenously (through the penile vein)
# (§4) Group A: 5-FU 20 mg/kg (3H-5-FU30 μCi)+saline
# (§5) Tumor was surgically removed (and blood was collected) at *predeterminated time after drug administration. Tumor weight was measured (and blood was centrifuged to obtain a plasma sample.)
# (§6) *15 min, 60 min, 3 hr, 4 hrs, . . . after drug administration . . . .
# (§7) Radioactivity level in tumor tissue was counted, using a liquid scintillation counter.
# [5] = monkey, in vivo; cited from earlier work
# [6] = tested on: psoriasis; assay: Topical treatment of a patient with psoriasis; format: in vivo, human (patient); conditions: carried in hyaluronic acid
# Method: In another patient, a drug (methotrexate) was carried in hyaluronic acid and applied topically to a patient with psoriasis.
# [7] = tested on: Fisher Bladder Carcinoma tumor tissue; assay: Intratumour injection study, radioactivity in tumor tissue; format: in vivo, Fisher 344 rat; conditions: intratumor injection; 1 h, 6 h
# Method: Animal: Fisher 344 rat, male 200-250g b. […] These drugs were administrated by intratumor injection. […] At the same time, injection into normal skin (on the left frank) was carried out similarly.
# [8] = Intravenous injection, radioactivity in liver; format: in vivo, Fisher 344 rat; design: unit not given beside the values; conditions: mean ± S.E.
# [9] = Intratumour injection study, radioactivity in normal skin; format: in vivo, Fisher 344 rat; conditions: injection into normal skin; 1 h, 6 h
# Method: Animal: Fisher 344 rat, male 200-250g At the same time, injection into normal skin (left frank) was carried out similarly. […] At the same time, injection into normal skin (on the left frank) was carried out similarly.
# [10] = tested on: Fisher Bladder Carcinoma tumor tissue; assay: Intravenous injection, radioactivity in tumor tissue; conditions: mean ± S.E., FIG. 5 plots CPM
# Method: as §1, §2, §3, §4, §5, §6, §7
# [11] = human, in vivo
molecule,measurement,setting,value
COc1ccc2c(c1)c(CC(=O)O)c(C)n2C(=O)c1ccc(Cl)cc1 [indomethacin],Multiple of the therapeutic dose that is non-toxic in animals,[1],16 fold
same,Side effects,[2],some side effects
O=C(OCC(O)CO)c1ccccc1Nc1ccnc2c(C(F)(F)F)cccc12 (centres unmarked) [Idarac],Comments on outcome (in words),[3],poor response
hyaluronic acid,Radioactivity in tumor tissue (in words),[4],can enhance 5-FU uptake in tumor tissue
sodium hyaluronate,"Cellular infiltration of the vitreous and anterior chamber, flare, haze, pathological changes",[5],"no significant cellular infiltration of the vitreous and anterior chamber, no flare in the aqueous humour, no haze or flare in the vitreous, and no pathological changes"
CN(Cc1cnc2nc(N)nc(N)c2n1)c1ccc(C(=O)N[C@@H](CCC(=O)O)C(=O)O)cc1 [methotrexate],Response of psoriasis,[6],the psoriasis cleared
"O=c1[nH]cc(F)c(=O)[nH]1 [Formulation 5-FU, 5-Fluoracil]",Radioactivity retention in tumor tissue (in words),[7],radioactivity immediately disappeared from the tumor or the normal tissue
same,Radioactivity in liver,[8]; 15 min after i.v.,18680 ± 625
same,Radioactivity in liver,[8]; 60 min after i.v.,5451 ± 841
same,Radioactivity in liver,[8]; 3 hrs after i.v.,2230 ± 449
same,Radioactivity in liver,[8]; 5 hrs after i.v.,1129 ± 70
same,Radioactivity clearance in normal tissue (skin) (in words),[9],radioactivity immediately disappeared from the tumor or the normal tissue
same,Radioactivity in tumor,[10]; 15 min after i.v.,2810 ± 165
same,Radioactivity in tumor,[10]; 60 min after i.v.,1751 ± 149
same,Radioactivity in tumor,[10]; 3 hrs after i.v.,1493 ± 227
same,Radioactivity in tumor,[10]; 5 hrs after i.v.,853 ± 129
CN1C(C(=O)Nc2ccccn2)=C(O)c2ccccc2S1(=O)=O [piroxicam],Comments on outcome (in words),[3],nega-; also recorded: poor relief
"O=C(c1ccccc1)c1ccc2n1CCC2C(=O)O (racemic) [Toradol™, (+/-) tromethamine salt of ketorolac]",Side effects,[11],there were no side effects
same,Back pain,[2],the back pain eased and disappeared for some time
COc1ccc2cc([C@H](C)C(=O)O)ccc2c1 [naproxen],Side effects,[2],some side effects

# From patent publication US5977088A (priority 1995, dated 1999)
